How the values were obtained:
[1] = Cytotoxicity against human […] cells; type: cell-based
MCF7 = assay: Cytotoxicity against human MCF7 cells; type: functional, cell-based
MDA-MB-231 = assay: Cytotoxicity against human MDA-MB-231 cells; type: functional, cell-based

## C=C1[C@H]2C[C@@H]3C[C@H](OC(C)=O)C(C)=C([C@@H](OC(C)=O)[C@H](OC(C)=O)[C@]2(C)[C@@H](OC(C)=O)C[C@@H]1O)C3(C)C
[1]
  IC50: > 50 µM
MCF7
  IC50: > 50 µM
MDA-MB-231
  IC50: > 50 µM

## CC(=O)O[C@H]1C(=O)[C@@]2(C)[C@H]([C@H](OC(=O)c3ccccc3)[C@]3(O)C[C@H](OC(=O)[C@H](O)[C@@H](NC(=O)c4ccccc4)c4ccccc4)C(C)=C1C3(C)C)[C@]1(OC(C)=O)CO[C@@H]1C[C@@H]2O [PACLITAXEL]
[1]
  IC50: 27 µM
